Data as given in patent US6562387B2, “Ambient stable beverage and process of making” (priority 2000, dated 2003).
Converted amounts (≈) assume the structure as drawn. Like-named read-outs stand apart in the source and are kept apart here.

How the values were obtained:
[1] = Minimum inhibitory concentration (MIC) of antimicrobials / essential oils; assay type: cell-based
Source text: The minimum inhibitory concentration (MIC) is given for each compound.
In each case the respective minimum inhibitory concentration (MIC) and their specific preferred concentration is also given.

[2] = test system: yeast Saccharomyces cerevisiae X2180-1B; details: RTD tea pH 3.4, 1-175 ppm cinnamic acid, 1-250 ppm DMDC, 14 days at 25° C.
Method: Tubes were inoculated with 10^4cells of the yeast Saccharomyces cerevisiae X2180-1B. Immediately following inoculation, dimethyl dicarbonate, DMDC was added at concentrations ranging from 1-250 ppm.
Tubes were inoculated with 10^4 cells of the yeast Saccharomyces cerevisiae X2180-1B. Immediately following inoculation, dimethyl dicarbonate, DMDC was added at concentrations ranging from 1-250 ppm.

[3] = test system: yeast Saccharomyces cerevisiae X2180-1B; details: synthetic soft drink pH 3.4, 1-175 ppm cinnamic acid, 1-250 ppm DMDC, 14 days at 25° C.
Method: Synthetic soft drink contained glucose, 8%w/v, citric acid 3 g/l, potassium orthophosphate 1 g/l, magnesium chloride 0.1 g/g and yeast extract 0.1 g/l. […] Tubes were inoculated with 10^4 cells of the yeast Saccharomyces cerevisiae X2180-1B. Immediately following inoculation, dimethyl dicarbonate, DMDC was added at concentrations ranging from 1-250 ppm.

[4] = test system: mould; details: cited from earlier work
[5] = cited from earlier work
[6] = Table I, preferred essential oils, test organism not given, read-out: MIC (ppm)
[7] = Table II, particularly preferred essential oils, test organism not given
[8] = 25 ppm citral dimethyl acetal together with 35 ppm cumic alcohol
[9] = 100 ppm essential oil component
[10] = Table I, preferred essential oils, test organism not given

CCCCCCCCO [1-Octanol]
MIC [1, 6]: 247 µg/mL (≈ 1900 µM)

CC(=O)C(=O)c1ccccc1 [1-Phenyl-1,2-propanedione]
MIC [1, 6]: 222 µg/mL (≈ 1500 µM)

CCCCCCCCCCCO [1-Undecanol]
MIC [1, 6]: 14 µg/mL (≈ 81.2 µM)

CC(=O)OCCC1CCCCC1 [2-Cyclohexylethyl acetate]
MIC [1, 6]: 102 µg/mL

CCC=C(C)C=O [2-Methyl-2-pentenal]
MIC [1, 6]: 1270 µg/mL (≈ 13000 µM)

CC(C)CCCC(C)CCO (stereo not drawn) [3,7-Dimethyl-1-octanol]
tubes supporting yeast growth, comparison with control FIG. 1 ([2]; 50 ppm essential oil component): very substantially fewer tubes supporting yeast growth
MIC [1, 6]: 15.8 µg/mL (≈ 99.8 µM)
MIC (ppm) [1, 7]: 15.8 ppm
tubes supporting yeast growth, comparison with control FIG. 11 ([3]; 50 ppm essential oil component): very substantially fewer tubes supporting yeast growth

CC(=O)OCCc1scnc1C [4-Methyl-5-thiazoleethanol acetate]
MIC [1, 6]: 1110 µg/mL

CC(C)(C)C1CCC(=O)CC1 [4-tert-Butylcyclohexanone]
MIC [1, 6]: 462 µg/mL (≈ 3000 µM)

CC(C)CC=C(C=O)c1ccccc1 [5-Methyl-2-phenyl-2-hexenal]
MIC [1]: 162 µg/mL (≈ 860 µM)

O=C(OCc1ccccc1)c1ccc(O)cc1 [Benzyl-4-hydroxybenzoate]
MIC [1, 6]: 68 µg/mL (≈ 298 µM)

C=C(C)C1CC=C(C)C(=O)C1 (stereo not drawn) [Carvone]
MIC [1, 6]: 300 µg/mL (≈ 2000 µM)

O=CC=Cc1ccccc1 [Cinnamaldehyde]
MIC [1, 6]: 66 µg/mL (≈ 499 µM)

COC(C=C(C)CCC=C(C)C)OC [Citral dimethyl acetal]
tubes supporting yeast growth, comparison with control FIG. 1 [2, 8]: very substantially fewer tubes supporting yeast growth
tubes supporting yeast growth, comparison with control FIG. 1 [2, 9]: very substantially fewer tubes supporting yeast growth
MIC [1, 6]: 198 µg/mL (≈ 998 µM)
MIC (ppm) [1, 7]: 198 ppm
tubes supporting yeast growth, comparison with control FIG. 11 [3, 8]: very substantially fewer tubes supporting yeast growth
tubes supporting yeast growth, comparison with control FIG. 11 [3, 9]: very substantially fewer tubes supporting yeast growth

CC(C)=CCCC(C)=CC=O [Citral]
tubes supporting yeast growth, comparison with control FIG. 1 [2, 9]: very substantially fewer tubes supporting yeast growth
MIC [1, 6]: 228 µg/mL (≈ 1500 µM)
MIC (ppm) [1, 7]: 228 ppm
tubes supporting yeast growth, comparison with control FIG. 11 [3, 9]: very substantially fewer tubes supporting yeast growth

CC(C)=CCCC(C)CCO (stereo not drawn) [Citronellol]
MIC [1, 6]: 125 µg/mL (≈ 800 µM)

CC(C)c1ccc(CO)cc1 [Cumic alcohol]
tubes supporting yeast growth, comparison with control FIG. 1 [2, 8]: very substantially fewer tubes supporting yeast growth
tubes supporting yeast growth, comparison with control FIG. 1 [2, 9]: very substantially fewer tubes supporting yeast growth
MIC (ppm) [1, 10]: 450 ppm
MIC (ppm) [1, 7]: 450 ppm
tubes supporting yeast growth, comparison with control FIG. 11 [3, 8]: very substantially fewer tubes supporting yeast growth
tubes supporting yeast growth, comparison with control FIG. 11 [3, 9]: very substantially fewer tubes supporting yeast growth

O=C(O)CCCC1CCCCC1 [Cyclohexanebutyric acid]
MIC [1, 6]: 68 µg/mL (≈ 399 µM)

COC(=O)OC(=O)OC [DMDC, Dimethyl dicarbonate]
efficacy against mould contamination [4]: inefficient
break down in aqueous environments [5]: breaks down rapidly

CCCCCCCCCC=O [Decanal]
MIC [1, 6]: 47 µg/mL (≈ 301 µM)

CCCCCCCCCCO [Decanol]
MIC [1, 6]: 24 µg/mL (≈ 152 µM)

C=C(C)C1CCC(C)C(O)C1 (stereo not drawn) [Dihydrocarveol]
MIC (ppm) [1, 10]: 540 ppm

CCOC(=O)CCC1CCCCC1 [Ethyl cyclohexanepropionate]
MIC [1, 6]: 184 µg/mL (≈ 998 µM)

CCOC(=O)C(C)=O [Ethyl pyruvate]
MIC [1, 6]: 1390 µg/mL (≈ 12000 µM)
MIC (ppm) [1, 7]: 1392 ppm

CC/C=C\CC1=C(C)CCC1=O [Jasmone]
MIC [1, 6]: 246 µg/mL (≈ 1500 µM)

COC(=O)c1ccccc1N [Methyl anthranilate]
MIC [1, 6]: 310 µg/mL (≈ 2050 µM)

CCCCCCCCC(=O)OC [Methyl nonanoate]
MIC [1, 6]: 90 µg/mL (≈ 522 µM)

COC(=O)c1ccccc1O [Methyl salicylate]
MIC [1, 6]: 152 µg/mL (≈ 999 µM)

CC1(C)C2CC=C(CO)C1C2 (stereo not drawn) [Myrtenol]
tubes supporting yeast growth, comparison with control FIG. 1 [2, 9]: very substantially fewer tubes supporting yeast growth
MIC (ppm) [1, 10]: 137 ppm
MIC (ppm) [1, 7]: 137 ppm
tubes supporting yeast growth, comparison with control FIG. 11 [3, 9]: very substantially fewer tubes supporting yeast growth

CC1CCC(C(C)C)C(O)C1 (stereo not drawn) [Neomenthol]
MIC (ppm) [1, 10]: 156 ppm

CCCCCCCCC(=O)O [Nonanoic acid]
MIC [1, 6]: 63 µg/mL (≈ 398 µM)

CCCCCCCC(=O)O [Octanoic acid (caprylic), Octanoic acid]
MIC [1, 6]: 115 µg/mL (≈ 797 µM)

CC(=O)OCc1ccc2c(c1)OCO2 [Piperonyl acetate]
tubes supporting yeast growth, comparison with control FIG. 1 [2, 9]: very substantially fewer tubes supporting yeast growth
MIC [1]: 242 µg/mL
MIC (ppm) [1, 7]: 242 ppm
tubes supporting yeast growth, comparison with control FIG. 11 [3, 9]: very substantially fewer tubes supporting yeast growth

CCCOC(=O)c1ccccc1 [Propyl benzoate]
MIC [1, 6]: 66 µg/mL (≈ 402 µM)

CC(C)=C1CC[C@@H](C)CC1=O [Pulegone]
MIC [1, 6]: 152 µg/mL (≈ 998 µM)

CC=CC=CC=O [Sorbic aldehyde (2,4-hexadienal), 2,4-hexadienal]
MIC [1, 6]: 86 µg/mL (≈ 895 µM)

CC1=CCC(O)(C(C)C)CC1 (stereo not drawn) [Terpinen-4-ol]
MIC [1, 6]: 616 µg/mL (≈ 3990 µM)

CCCCCCCCCCC=O [Undecanal]
MIC [1, 6]: 34 µg/mL (≈ 200 µM)

COc1cc(C=O)ccc1O [Vanillin]
MIC [1, 6]: 1220 µg/mL (≈ 7990 µM)

COc1ccccc1C=CC=O [o-Methoxycinnamaldehyde]
MIC [1, 6]: 130 µg/mL (≈ 802 µM)

CCCCC/C=C/C=C/C=O [trans, trans-2,4-Decadienal]
tubes supporting yeast growth, comparison with control FIG. 1 ([2]; 15 ppm essential oil component): very substantially fewer tubes supporting yeast growth
MIC [1, 6]: 8 µg/mL (≈ 52.5 µM)
MIC (ppm) [1, 7]: 8 ppm
tubes supporting yeast growth, comparison with control FIG. 11 ([3]; 15 ppm essential oil component): very substantially fewer tubes supporting yeast growth

C/C(C=O)=C\c1ccccc1 [α-Methyl-trans-cinnamaldehyde]
MIC (ppm) [1, 10]: 58.4 ppm

CCCCCC1CCC(=O)O1 (stereo not drawn) [γ-Nonanoic lactone]
MIC (ppm) [1, 10]: 63 ppm

CCCCCCCC1CCC(=O)O1 (stereo not drawn) [γ-Undecalactone]
MIC (ppm) [1, 10]: 28 ppm

CCCC1CCCC(=O)O1 (stereo not drawn) [δ-Octalactone]
MIC (ppm) [1, 10]: 568 ppm

Tolualdehyde
MIC (ppm) [1, 10]: 240 ppm
